Test results as given in ChEMBL document CHEMBL1909046, “DrugMatrix in vitro pharmacology data”.

biological target: Beta-1 adrenergic receptor (Homo sapiens, UniProt P08588); experiment: DRUGMATRIX: Adrenergic beta1 radioligand binding (ligand: [125I] Cyanopindolol); format: cell membranes, CHO-K1, Membrane; conditions: cho-k1; Not Active = under 50% inhibition at 10 µM
Sequence (P08588 whole entry): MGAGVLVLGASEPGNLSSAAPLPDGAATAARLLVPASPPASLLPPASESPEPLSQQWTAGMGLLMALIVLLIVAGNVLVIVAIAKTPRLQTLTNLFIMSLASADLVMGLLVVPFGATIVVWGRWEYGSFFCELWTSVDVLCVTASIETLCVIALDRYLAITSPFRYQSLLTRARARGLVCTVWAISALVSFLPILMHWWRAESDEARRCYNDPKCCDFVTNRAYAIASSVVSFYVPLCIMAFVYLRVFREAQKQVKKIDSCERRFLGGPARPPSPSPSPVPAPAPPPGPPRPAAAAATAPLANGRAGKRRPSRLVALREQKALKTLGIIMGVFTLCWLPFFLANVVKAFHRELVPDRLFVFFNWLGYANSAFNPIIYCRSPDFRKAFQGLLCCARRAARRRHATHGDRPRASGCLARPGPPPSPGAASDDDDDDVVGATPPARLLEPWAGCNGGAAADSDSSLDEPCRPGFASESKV

Row | Compound | IC50
1 | C#C[C@]1(O)CC[C@H]2[C@@H]3CCC4=CC(=O)CC[C@@H]4[C@H]3CC[C@@]21C [NORETHINDRONE] | Not Active
2 | CC(CN1c2ccccc2Sc2ccccc21)N(C)C (stereo not drawn) [PROMETHAZINE] | Not Active
3 | COc1cc(NC(C)CCCN)c2ncccc2c1 (stereo not drawn) [PRIMAQUINE] | Not Active
4 | CCCCCCNC(=O)n1cc(F)c(=O)[nH]c1=O [CARMOFUR] | Not Active
5 | Cc1cc(C(C)(C)C)c(O)c(C)c1CC1=NCCN1 [OXYMETAZOLINE] | Not Active
6 | O=c1[nH]c2ccccc2c2ccccc12 | Not Active
7 | C=C(Cl)Cl [1,1-DICHLOROETHENE] | Not Active
8 | CC(=O)[C@]1(O)Cc2c(O)c3c(c(O)c2[C@@H](O[C@H]2C[C@H](N)[C@H](O)[C@H](C)O2)C1)C(=O)c1ccccc1C3=O [IDARUBICIN] | Not Active
9 | Oc1ccccc1 [PHENOL] | Not Active
10 | O=C(Nc1ccc(Cl)c(Cl)c1)c1cc(Cl)cc(Cl)c1O [3,3',4',5-TETRACHLOROSALICYLANILIDE] | Not Active
11 | CC(=O)Nc1ccc2c(c1)Cc1ccccc1-2 [2-ACETYLAMINOFLUORENE] | Not Active
12 | C[N+](C)(C)CCOC(N)=O.[Cl-] [CARBACHOL] | Not Active
13 | Oc1ncnc2[nH]ncc12 [ALLOPURINOL] | Not Active

biological target: Beta-3 adrenergic receptor (Homo sapiens, UniProt P13945); experiment: DRUGMATRIX: Adrenergic beta3 radioligand binding (ligand: [125I] Cyanopindolol); format: cell membranes, HEK293, Membrane; conditions: hek293; Not Active = under 50% inhibition at 10 µM
Sequence (P13945 whole entry): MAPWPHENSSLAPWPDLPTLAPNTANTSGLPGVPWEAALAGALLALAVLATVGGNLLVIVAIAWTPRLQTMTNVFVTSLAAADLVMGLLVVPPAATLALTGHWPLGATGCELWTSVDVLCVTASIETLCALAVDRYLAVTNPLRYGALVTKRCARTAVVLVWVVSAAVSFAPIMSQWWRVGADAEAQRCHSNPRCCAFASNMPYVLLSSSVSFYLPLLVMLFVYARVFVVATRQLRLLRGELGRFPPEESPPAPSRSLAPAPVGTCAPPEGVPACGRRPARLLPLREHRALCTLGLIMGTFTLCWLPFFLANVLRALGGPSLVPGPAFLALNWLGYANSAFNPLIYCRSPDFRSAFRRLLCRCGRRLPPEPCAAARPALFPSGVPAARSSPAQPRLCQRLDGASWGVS

Row | Compound | IC50
14 | C#C[C@]1(O)CC[C@H]2[C@@H]3CCC4=CC(=O)CC[C@@H]4[C@H]3CC[C@@]21C [NORETHINDRONE] | Not Active
15 | CC(CN1c2ccccc2Sc2ccccc21)N(C)C (stereo not drawn) [PROMETHAZINE] | Not Active
16 | COc1cc(NC(C)CCCN)c2ncccc2c1 (stereo not drawn) [PRIMAQUINE] | Not Active
17 | CCCCCCNC(=O)n1cc(F)c(=O)[nH]c1=O [CARMOFUR] | Not Active
18 | Cc1cc(C(C)(C)C)c(O)c(C)c1CC1=NCCN1 [OXYMETAZOLINE] | Not Active
19 | O=c1[nH]c2ccccc2c2ccccc12 | Not Active
20 | C=C(Cl)Cl [1,1-DICHLOROETHENE] | Not Active
21 | CC(=O)[C@]1(O)Cc2c(O)c3c(c(O)c2[C@@H](O[C@H]2C[C@H](N)[C@H](O)[C@H](C)O2)C1)C(=O)c1ccccc1C3=O [IDARUBICIN] | Not Active
22 | Oc1ccccc1 [PHENOL] | Not Active
23 | O=C(Nc1ccc(Cl)c(Cl)c1)c1cc(Cl)cc(Cl)c1O [3,3',4',5-TETRACHLOROSALICYLANILIDE] | Not Active
24 | CC(=O)Nc1ccc2c(c1)Cc1ccccc1-2 [2-ACETYLAMINOFLUORENE] | Not Active
25 | C[N+](C)(C)CCOC(N)=O.[Cl-] [CARBACHOL] | Not Active
26 | Oc1ncnc2[nH]ncc12 [ALLOPURINOL] | Not Active

system: not listed separately; experiment: DRUGMATRIX: beta-Lactamase enzyme inhibition (substrate: Nitrocefin); parameters: species or system Bacillus cereus; conditions: Not Active = under 50% inhibition at 10 µM

Row | Compound | IC50 | Ki
27 | C#C[C@]1(O)CC[C@H]2[C@@H]3CCC4=CC(=O)CC[C@@H]4[C@H]3CC[C@@]21C [NORETHINDRONE] | Not Active | Not Active
28 | CC(CN1c2ccccc2Sc2ccccc21)N(C)C (stereo not drawn) [PROMETHAZINE] | Not Active | Not Active
29 | COc1cc(NC(C)CCCN)c2ncccc2c1 (stereo not drawn) [PRIMAQUINE] | Not Active | Not Active
30 | CCCCCCNC(=O)n1cc(F)c(=O)[nH]c1=O [CARMOFUR] | Not Active | Not Active
31 | Cc1cc(C(C)(C)C)c(O)c(C)c1CC1=NCCN1 [OXYMETAZOLINE] | Not Active | Not Active
32 | O=c1[nH]c2ccccc2c2ccccc12 | Not Active | Not Active
33 | C=C(Cl)Cl [1,1-DICHLOROETHENE] | Not Active | Not Active
34 | CC(=O)[C@]1(O)Cc2c(O)c3c(c(O)c2[C@@H](O[C@H]2C[C@H](N)[C@H](O)[C@H](C)O2)C1)C(=O)c1ccccc1C3=O [IDARUBICIN] | Not Active | Not Active
35 | Oc1ccccc1 [PHENOL] | Not Active | Not Active
36 | O=C(Nc1ccc(Cl)c(Cl)c1)c1cc(Cl)cc(Cl)c1O [3,3',4',5-TETRACHLOROSALICYLANILIDE] | Not Active | Not Active
37 | CC(=O)Nc1ccc2c(c1)Cc1ccccc1-2 [2-ACETYLAMINOFLUORENE] | Not Active | Not Active
38 | C[N+](C)(C)CCOC(N)=O.[Cl-] [CARBACHOL] | Not Active | Not Active
39 | Oc1ncnc2[nH]ncc12 [ALLOPURINOL] | Not Active | Not Active

system: not listed separately; experiment: DRUGMATRIX: Calcium Channel Type L, Benzothiazepine radioligand binding (ligand: [3H] Diltiazem); format: cell membranes, Rattus norvegicus, Wistar, Brain, Membrane; conditions: Not Active = under 50% inhibition at 10 µM

Row | Compound | IC50 | Ki
40 | C#C[C@]1(O)CC[C@H]2[C@@H]3CCC4=CC(=O)CC[C@@H]4[C@H]3CC[C@@]21C [NORETHINDRONE] | Not Active | Not Active
41 | COc1cc(NC(C)CCCN)c2ncccc2c1 (stereo not drawn) [PRIMAQUINE] | Not Active | Not Active
42 | CCCCCCNC(=O)n1cc(F)c(=O)[nH]c1=O [CARMOFUR] | Not Active | Not Active
43 | Cc1cc(C(C)(C)C)c(O)c(C)c1CC1=NCCN1 [OXYMETAZOLINE] | Not Active | Not Active
44 | O=c1[nH]c2ccccc2c2ccccc12 | Not Active | Not Active
45 | C=C(Cl)Cl [1,1-DICHLOROETHENE] | Not Active | Not Active
46 | CC(=O)[C@]1(O)Cc2c(O)c3c(c(O)c2[C@@H](O[C@H]2C[C@H](N)[C@H](O)[C@H](C)O2)C1)C(=O)c1ccccc1C3=O [IDARUBICIN] | Not Active | Not Active
47 | Oc1ccccc1 [PHENOL] | Not Active | Not Active
48 | O=C(Nc1ccc(Cl)c(Cl)c1)c1cc(Cl)cc(Cl)c1O [3,3',4',5-TETRACHLOROSALICYLANILIDE] | Not Active | Not Active
49 | CC(=O)Nc1ccc2c(c1)Cc1ccccc1-2 [2-ACETYLAMINOFLUORENE] | Not Active | Not Active
50 | C[N+](C)(C)CCOC(N)=O.[Cl-] [CARBACHOL] | Not Active | Not Active
51 | Oc1ncnc2[nH]ncc12 [ALLOPURINOL] | Not Active | Not Active

same assay, conditions: Not Active = under 50% inhibition at 10 µM; read-out: IC50

Row | Compound | IC50 [nM]
52 | CC(CN1c2ccccc2Sc2ccccc21)N(C)C (stereo not drawn) [PROMETHAZINE] | 2780

same assay, conditions: Not Active = under 50% inhibition at 10 µM; read-out: Ki

Row | Compound | Ki [nM]
53 | CC(CN1c2ccccc2Sc2ccccc21)N(C)C (stereo not drawn) [PROMETHAZINE] | 2470

biological target: 5-hydroxytryptamine receptor 6 (Homo sapiens, UniProt P50406); format: cell membranes, HeLa, Membrane; conditions: hela; also: in other assays of this panel Not Active means under 50% inhibition at 10 µM
Sequence (P50406 whole entry): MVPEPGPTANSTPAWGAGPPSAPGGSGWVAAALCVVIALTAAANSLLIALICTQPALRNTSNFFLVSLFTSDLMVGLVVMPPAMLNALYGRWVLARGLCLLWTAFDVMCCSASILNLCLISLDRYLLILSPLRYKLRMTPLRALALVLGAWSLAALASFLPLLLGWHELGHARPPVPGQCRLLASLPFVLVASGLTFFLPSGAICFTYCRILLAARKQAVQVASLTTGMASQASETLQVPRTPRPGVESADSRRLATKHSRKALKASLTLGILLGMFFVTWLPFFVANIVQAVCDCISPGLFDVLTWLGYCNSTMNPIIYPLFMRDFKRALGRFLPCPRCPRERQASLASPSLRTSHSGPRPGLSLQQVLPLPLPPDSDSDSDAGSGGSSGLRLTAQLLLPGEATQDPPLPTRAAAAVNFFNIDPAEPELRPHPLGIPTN

Row | Compound | IC50
54 | C#C[C@]1(O)CC[C@H]2[C@@H]3CCC4=CC(=O)CC[C@@H]4[C@H]3CC[C@@]21C [NORETHINDRONE] | Not Active
55 | COc1cc(NC(C)CCCN)c2ncccc2c1 (stereo not drawn) [PRIMAQUINE] | Not Active
56 | CCCCCCNC(=O)n1cc(F)c(=O)[nH]c1=O [CARMOFUR] | Not Active
57 | O=c1[nH]c2ccccc2c2ccccc12 | Not Active
58 | C=C(Cl)Cl [1,1-DICHLOROETHENE] | Not Active
59 | CC(=O)[C@]1(O)Cc2c(O)c3c(c(O)c2[C@@H](O[C@H]2C[C@H](N)[C@H](O)[C@H](C)O2)C1)C(=O)c1ccccc1C3=O [IDARUBICIN] | Not Active
60 | Oc1ccccc1 [PHENOL] | Not Active
61 | O=C(Nc1ccc(Cl)c(Cl)c1)c1cc(Cl)cc(Cl)c1O [3,3',4',5-TETRACHLOROSALICYLANILIDE] | Not Active
62 | CC(=O)Nc1ccc2c(c1)Cc1ccccc1-2 [2-ACETYLAMINOFLUORENE] | Not Active
63 | C[N+](C)(C)CCOC(N)=O.[Cl-] [CARBACHOL] | Not Active
64 | Oc1ncnc2[nH]ncc12 [ALLOPURINOL] | Not Active

same assay, conditions: read-out: IC50

Row | Compound | IC50 [nM]
65 | CC(CN1c2ccccc2Sc2ccccc21)N(C)C (stereo not drawn) [PROMETHAZINE] | 2430
66 | Cc1cc(C(C)(C)C)c(O)c(C)c1CC1=NCCN1 [OXYMETAZOLINE] | 1670

same assay, conditions: read-out: Ki

Row | Compound | Ki [nM]
67 | CC(CN1c2ccccc2Sc2ccccc21)N(C)C (stereo not drawn) [PROMETHAZINE] | 1130
68 | Cc1cc(C(C)(C)C)c(O)c(C)c1CC1=NCCN1 [OXYMETAZOLINE] | 775
